Calls of active or inactive are those of the source. Rule as the data show it, for most assays here: actives have a measured EC50 and inactives only a lower limit.
Experiments:
[1] = cells; assay type: functional
[2] = target: T1, Heat shock factor protein 1 (Mus musculus, UniProt P38532); assay: enhancement of HSF1-driven luciferase signal – cell-based, NIH3T3, luminescence, dose retest, confirmation (AID 435004); assay type: functional;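 also: stress induced by proteasome inhibitor MG132 added 30 min after compound; luciferase reporter driven by HSF1 response element in NIH3T3 cells; actives raise luminescence as potentiators of the MG132 stress response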
T1 sequence (P38532 whole entry): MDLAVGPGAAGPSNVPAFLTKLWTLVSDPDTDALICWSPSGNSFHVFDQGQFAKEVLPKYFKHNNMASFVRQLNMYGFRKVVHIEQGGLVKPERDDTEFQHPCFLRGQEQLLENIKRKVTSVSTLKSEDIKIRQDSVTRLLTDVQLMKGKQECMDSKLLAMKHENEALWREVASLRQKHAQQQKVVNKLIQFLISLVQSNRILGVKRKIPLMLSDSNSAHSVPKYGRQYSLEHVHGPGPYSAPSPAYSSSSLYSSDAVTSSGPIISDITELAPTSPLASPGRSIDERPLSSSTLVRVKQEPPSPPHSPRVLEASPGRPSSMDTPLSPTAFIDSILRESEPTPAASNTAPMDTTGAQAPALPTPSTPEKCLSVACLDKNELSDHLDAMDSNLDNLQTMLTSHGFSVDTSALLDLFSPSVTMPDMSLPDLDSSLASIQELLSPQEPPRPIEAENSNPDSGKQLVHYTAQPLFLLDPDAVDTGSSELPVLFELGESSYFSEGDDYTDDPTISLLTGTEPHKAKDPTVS

[3] = target: Cytochrome P450 3A4 (Homo sapiens, UniProt P08684);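 also: CYP3A4 tested as one member of a cytochrome P450 panel screen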
Cytochrome P450 3A4, sequence (P08684 whole entry): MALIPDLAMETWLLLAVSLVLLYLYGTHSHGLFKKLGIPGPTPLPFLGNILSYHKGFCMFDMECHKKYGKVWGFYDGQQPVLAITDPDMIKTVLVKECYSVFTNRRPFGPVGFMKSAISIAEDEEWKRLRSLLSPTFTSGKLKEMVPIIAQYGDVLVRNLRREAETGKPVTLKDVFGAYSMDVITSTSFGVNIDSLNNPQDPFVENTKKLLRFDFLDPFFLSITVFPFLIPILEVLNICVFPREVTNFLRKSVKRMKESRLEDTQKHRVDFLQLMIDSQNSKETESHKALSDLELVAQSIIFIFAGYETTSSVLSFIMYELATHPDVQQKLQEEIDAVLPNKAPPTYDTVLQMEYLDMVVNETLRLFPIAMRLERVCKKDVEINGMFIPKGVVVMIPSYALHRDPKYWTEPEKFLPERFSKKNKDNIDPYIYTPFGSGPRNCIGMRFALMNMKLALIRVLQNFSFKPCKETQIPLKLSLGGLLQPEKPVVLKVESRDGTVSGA

[4] = target: T2, Zinc finger protein mex-5 (Caenorhabditis elegans, UniProt Q9XUB2); assay: potency of MEX-5 RNA-binding blockers – biochemical, C. elegans, fluorescence polarization, dose response (AID 1960)
T2 sequence (Q9XUB2 whole entry): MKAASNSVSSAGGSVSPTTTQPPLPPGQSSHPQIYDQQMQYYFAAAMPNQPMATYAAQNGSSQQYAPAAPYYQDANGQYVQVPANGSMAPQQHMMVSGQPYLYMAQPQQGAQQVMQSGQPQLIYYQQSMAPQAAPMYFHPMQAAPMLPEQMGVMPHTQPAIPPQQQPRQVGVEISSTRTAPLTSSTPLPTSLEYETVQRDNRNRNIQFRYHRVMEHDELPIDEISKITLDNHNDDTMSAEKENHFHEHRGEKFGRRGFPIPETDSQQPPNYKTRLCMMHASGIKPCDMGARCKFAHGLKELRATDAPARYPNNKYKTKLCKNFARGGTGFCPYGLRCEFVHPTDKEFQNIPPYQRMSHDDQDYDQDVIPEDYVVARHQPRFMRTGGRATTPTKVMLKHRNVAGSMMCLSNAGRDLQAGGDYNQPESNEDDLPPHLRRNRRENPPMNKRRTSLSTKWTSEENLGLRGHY

[5] = target: T3, RNA-binding protein pos-1 (Caenorhabditis elegans, UniProt G5EF15); assay: disruptors of C. elegans POS-1 RNA interaction – biochemical, fluorescence polarization, dose response (AID 1964);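 also: purified POS-1 fused to maltose binding protein made in E. coli; potency of compounds blocking POS-1 binding to fluorescent RNA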
T3 sequence (G5EF15 whole entry): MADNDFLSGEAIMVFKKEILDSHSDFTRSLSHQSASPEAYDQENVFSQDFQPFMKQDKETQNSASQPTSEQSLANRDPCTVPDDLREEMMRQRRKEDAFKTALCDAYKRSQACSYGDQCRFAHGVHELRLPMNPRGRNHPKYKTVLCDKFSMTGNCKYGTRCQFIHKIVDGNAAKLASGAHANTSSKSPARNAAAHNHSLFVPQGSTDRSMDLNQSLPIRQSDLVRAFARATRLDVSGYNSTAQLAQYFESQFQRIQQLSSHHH

[6] = reduction of Shn3 3'UTR-driven luciferase in osteoblasts – cell-based, Clone20 osteoblasts, firefly luciferase, cherry-picked, dose response (AID 624132); assay type: functional;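 also: firefly luciferase luminescence from reporter carrying the Shn3 3'UTR in osteoblasts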
[7] = cells; assay type: functional, cell-based
[8] = cells; assay type: functional, cell-based; remark: listed apart in the source
[9] = target: Large T antigen (Simian virus 40, UniProt P03070); assay type: functional, Betapolyomavirus macacae;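 also: Confirmatory-stage PubChem screen for compounds that inhibit SV40 T antigen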
Large T antigen, sequence (P03070 whole entry): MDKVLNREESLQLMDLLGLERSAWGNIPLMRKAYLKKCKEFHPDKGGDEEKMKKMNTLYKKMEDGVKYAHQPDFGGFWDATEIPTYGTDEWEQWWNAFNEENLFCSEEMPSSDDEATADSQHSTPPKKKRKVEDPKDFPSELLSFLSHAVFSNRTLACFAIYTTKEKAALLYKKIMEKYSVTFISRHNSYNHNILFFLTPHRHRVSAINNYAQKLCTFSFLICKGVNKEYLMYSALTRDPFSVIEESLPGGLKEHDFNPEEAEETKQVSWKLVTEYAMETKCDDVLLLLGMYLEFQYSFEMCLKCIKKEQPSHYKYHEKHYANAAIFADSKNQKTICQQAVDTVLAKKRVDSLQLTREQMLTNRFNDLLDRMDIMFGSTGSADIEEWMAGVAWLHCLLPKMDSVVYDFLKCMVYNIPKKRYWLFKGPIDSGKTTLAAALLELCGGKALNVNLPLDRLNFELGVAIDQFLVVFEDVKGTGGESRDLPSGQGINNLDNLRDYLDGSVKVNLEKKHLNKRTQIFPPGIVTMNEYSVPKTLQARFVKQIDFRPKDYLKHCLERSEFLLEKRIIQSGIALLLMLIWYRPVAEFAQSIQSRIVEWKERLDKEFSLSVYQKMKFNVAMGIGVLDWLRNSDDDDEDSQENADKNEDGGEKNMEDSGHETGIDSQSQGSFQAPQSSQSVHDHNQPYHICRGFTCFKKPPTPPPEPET

[10] = Luminescence Cell-Based Dose Confirmation HTS to Identify Inhibitors of Platelet Dense Granule Release. [Related pubchem assays: 1663 (Primary HTS), 1678 (Summary of Project)]; assay type: functional
[11] = tested on: BJ; assay: BJ-TERT-LT-ST fibroblast viability loss – cell-based, RAS-independent, luminescence, dose response (AID 1935); assay type: functional; settings: Homo sapiens;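 also: BJ fibroblasts immortalized with TERT plus LT and ST oncogenes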
[12] = tested on: BJ; assay: cells; assay type: functional, cell-based; settings: Homo sapiens
[13] = DRD fibroblast viability loss – cell-based, non-viral oncogenic, luminescence, dose response (AID 1934); assay type: functional; settings: Homo sapiens
[14] = tested on: BJ; assay: BJ-TERT fibroblast viability loss – cell-based, RAS-independent, luminescence, dose response (AID 1933); assay type: functional; settings: Homo sapiens
[15] = target: Luciferin 4-monooxygenase (Photinus pyralis, UniProt P08659); assay: inhibition of purified Photinus pyralis luciferase – biochemical, luminescence, dose response (AID 1891)
Luciferin 4-monooxygenase, sequence (P08659 whole entry): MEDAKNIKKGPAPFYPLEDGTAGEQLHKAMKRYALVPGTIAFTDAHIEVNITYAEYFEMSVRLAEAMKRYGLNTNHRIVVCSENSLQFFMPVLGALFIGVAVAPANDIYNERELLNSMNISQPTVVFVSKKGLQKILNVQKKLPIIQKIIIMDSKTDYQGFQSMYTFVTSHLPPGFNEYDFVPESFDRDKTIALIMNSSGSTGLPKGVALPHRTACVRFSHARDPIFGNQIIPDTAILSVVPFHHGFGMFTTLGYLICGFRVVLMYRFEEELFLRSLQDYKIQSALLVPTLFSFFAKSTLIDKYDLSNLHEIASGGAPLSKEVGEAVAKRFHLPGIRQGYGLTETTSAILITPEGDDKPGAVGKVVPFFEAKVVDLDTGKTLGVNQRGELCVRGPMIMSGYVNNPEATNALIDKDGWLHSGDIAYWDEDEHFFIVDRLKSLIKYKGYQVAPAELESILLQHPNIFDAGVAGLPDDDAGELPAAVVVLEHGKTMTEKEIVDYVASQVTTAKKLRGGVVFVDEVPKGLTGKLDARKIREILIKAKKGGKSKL

[16] = target: Nonstructural protein 1 (Influenza A virus, UniProt Q194T2); assay type: functional, Influenza A virus (A/California/07/2009(H1N1))
Nonstructural protein 1, sequence (Q194T2 whole entry): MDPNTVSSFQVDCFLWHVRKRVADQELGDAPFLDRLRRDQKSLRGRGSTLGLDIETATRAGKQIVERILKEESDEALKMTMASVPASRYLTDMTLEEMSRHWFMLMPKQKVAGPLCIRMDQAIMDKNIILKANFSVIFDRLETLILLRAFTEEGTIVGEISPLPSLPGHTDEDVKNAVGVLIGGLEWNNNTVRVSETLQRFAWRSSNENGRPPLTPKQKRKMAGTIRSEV

With `CCOC(=O)C(C)Oc1cc(Cl)c(C=O)cc1OC` (configuration not stated) the IC50 [1] was 24.4 µM (active) and the EC50 [2] was > 260 µM (inactive).

With `CSc1nncc(/C(C)=N\Nc2ccccc2)n1` the AC50 [3] was 2.51 µM (inconclusive), the EC50 [4] was > 300 µM (not active) and the EC50 [5] was 41.3 µM (active).

With `COC(=O)[C@@]12CCCN1[C@H](c1ccc(-c3ccc(OC)cc3)cc1)[C@@H]1C(=O)N(C)C(=O)[C@@H]12` the AC50 [6] was 38.9 µM (active).

With `CN(C1CCCC1)C1CCN(C(S)=Nc2cc(F)cc(F)c2)CC1` the EC50 [7] was > 350 µM (not active) and the EC50 [8] was > 350 µM (not active).

In the case of `COc1cccc(C2C3=C(N=c4s/c(=C\c5ccccc5O)c(=O)n42)c2ccccc2CC3)c1OC` (configuration not stated), the EC50 [7] is reported as > 350 µM (not active) and the EC50 [8] is reported as > 350 µM (not active).

In the case of `Cc1c(C)n(Cc2ccccc2)c2ncnc(NN)c12`, the IC50 [9] is reported as > 100 µM (active).

In the case of `CCOC(=O)c1cc(-c2ccc(N)cc2)sc1N`, the IC50 [9] is reported as 9.87 µM (active).

For `Fc1cccc(/C=N/Nc2nccnc2Cl)c1`, the EC50 [7] was 7.47 µM (active), the EC50 [8] was > 350 µM (not active) and the EC50 [10] was 2.26 µM (active). The EC50 [11] was > 75 µM (inconclusive), the EC50 [12] was 11 µM (active) and the EC50 [13] was 11.3 µM (active). The EC50 [14] was 11.9 µM (active) and the EC50 [15] was 3.81 µM (active).

For `Cc1cc(Oc2ccccc2)nc(N2CCOCC2)n1`, the EC50 [7] was > 350 µM (not active) and the EC50 [8] was > 350 µM (not active).

For `Cc1ccccc1NC(=O)/C(C#N)=C/c1ccc(-c2ccc(Cl)c(C(=O)O)c2)o1`, the EC50 [4] was > 300 µM (not active) and the EC50 [5] was > 300 µM (not active).

For `COc1ccc(C2(O)CCN(CCCCOc3ccccc3)CC2)cc1`, the IC50 [1] was 32.8 µM (active).

With `CCc1ccc(NC(=O)N(CCN2CCOCC2)Cc2ccc3c(c2)CCCN3CC)cc1` the IC50 [16] was 40.6 µM (active).

In the case of `C/C(=N\NC(=O)c1ccc([N+](=O)[O-])c(C)c1)c1ccccc1Cl`, the IC50 [1] is reported as 42.2 µM (active).

Source: ChEMBL document CHEMBL1201862, “PubChem BioAssay data set” (2004)
